According to patent publication US5466669A, “Immunostimulatory agent” (Morinaga Milk Industry Co., Ltd., priority 1993, dated 1995):

What was measured:
[1] = test system: rat peritoneal mast cells; assay: Test 2: histamine release from rat peritoneal mast cells induced by α-toxin-producing Staphylococcus aureus cells; format: cell-based; details: for Histamine release (Relative %): S. aureus 121 about 1.0×10^8 cells per ml, control (saline) = 100
Description: This test was performed to study the activity of the peptide of the present invention to promote the release of histamine from rat peritoneal mast cells induced by α-toxin-producing Staphylococcus aureus cells.
Staphylococcus aureus 121, an α-toxin-producing strain, was cultured overnight in Brain Heart Infusion broth at 37° C. The bacterial cells were collected by centrifugation at 4000×g for 20 min, washed with phosphate-buffered saline, and suspended in the same buffer for use in the experiment. Rat peritoneal cells were prepared as in Test 1.
The same method as in Test 1 was used, except histamine release from the mast cells was induced by the addition of α-toxin-producing Staphylococcus aureus cells at a final concentration of about 1.0×10^8 cells per ml.

[2] = test system: human polymorphonuclear neutrophils; assay: Test 3: leukotriene release from human polymorphonuclear neutrophils induced by calcium ionophore A23187; format: cell-based; details: for Leukotriene released (ng) B4 / Leukotriene released (ng) C4 / Leukotriene released (ng) 20-COOH / Leukotriene released (ng) 20-OH: A23187 5 μM; for Leukotriene released (ng) B4: saline control 12; for Leukotriene released (ng) C4: saline control 18; for Leukotriene released (ng) 20-COOH: saline control 31; for Leukotriene released (ng) 20-OH: saline control 55; for Leukotriene released (ng) (Total B4): sum of B4, 20-OH and 20-COOH, saline control 98
Description: This test was performed to study the activity of the peptide of the present invention to promote the release of leukotriene B4 from human polymorphonuclear neutrophils induced by the calcium ionophore A23187.
Human polymorphonuclear neutrophils were prepared by fractionation of leukocytes from heparinized blood of healthy donors on a Ficoll-metrizoategradient followed by dextran sedimentation. The cells were centrifuged at 300×g, and washed three times with phosphate-buffered saline, after which less than 2% of the platelets remained. Erythrocytes were removed by exposing the cells to hypotonic conditions. The purity of the polymorphonuclear neutrophil fraction used was greater than 97% as confirmed by light microscopy.
For analysis of leukotriene release, human neutrophils suspended in phosphate-buffered saline at approximately 1×10^7 cells per ml were used as the target cells. The cells were incubated for 30 min in the presence of test substance [(purified peptide obtained by the method as in Example 1, or human lactoferrin (Sigma Chemical Co.), or bovine lactoferrin (Morinaga Milk Industry Co.)]. Leukotriene release from the neutrophils was then induced by the addition of calcium ionophore A23187 (Sigma chemical Co.) at a final concentration of 5 μM. After 30 min, the supernatants of the stimulated cells were deproteinized by addition of 2 ml of methanol-acetonitrile (1:1) overlaid with nitrogen and frozen for 12 h at -70° C. After centrifugation at 1000×g for 15 min the supernatant was evaporated to dryness in a freeze dryer, suspended in 0.5 ml of methanol-water (30:70), overlaid with nitrogen, and stored overnight at -70° C. The samples were centrifuged at 1000×g and the supernatant was assayed for the presence of leukotrienes by high pressure liquid chromatography using a reverse-phase column of Nucleosil (C18; 5 μm particles) at a column temperature of 40° C. The solvent system was a mixture of phosphate buffer (17 mM K2 HPO4 containing 0.05% EDTA), acetonitrile, and methanol (50:30:20) adjusted to pH 5.0 with phosphoric acid. The absorbance at 280 nm of the column effluent was monitored and recorded. The concentration of each eluted leukotriene was determined from the peak area by means of a computing integrator. The leukotrienes were identified from their retention times with reference to known standards. The minimum detectable quantity was 1 ng in each instance.

[3] = test system: rat peritoneal mast cells; assay: Test 1: histamine release from rat peritoneal mast cells induced by calcium ionophore A23187; format: cell-based; details: for Histamine release (Relative %): A23187 5 μM, control (saline) = 100
Description: This test was performed to study the activity of the peptide of the present invention to promote the release of histamine from rat peritoneal mast cells induced by the calcium ionophore A23187.
Peritoneal cells were collected from Wistar rats after intraperitoneal injection of phosphate-buffered saline (consisting of 120 mM NaCl, 10 mM Na2 PO4, 3 mM KH2 PO4, pH 7.4). Their abdoments were massaged and the buffer containing the cells was recovered. The cells were centrifuged at 300×g for 15 min and washed twice with phosphate-buffered saline. The cells from several rats were pooled for use in the experiments.
Rat peritoneal cells containing about 1×10^5 mast cells per ml were used as the target cells. A 500 μl volume of the cell suspension was incubated with 100 μl volume of the test substance [purified peptide obtained by the method as in Example 1, or human lactoferrin (Sigma Chemical Co.), or bovine lactoferrin (Morinaga Milk industry Co.)] at 37° C. for 3O min. Thereafter, histamine release from the mast cells was induced by the addition of calcium ionophore A23187 (Sigma Chemical Co.) at a final concentration of 5 μM. After 10 min of incubation the cells were centrifuged at 300×g for 15 min and the supernatant was removed and deproteinized by the addition of 2 ml of HClO4 (2%). The deproteinized sample was then centrifuged at 2000×g for 20 min and the histamine content in the supernatant was determined by the fluorophotometric analyser technique (AutoAnalyzer: Technikon). Cells in the presence of phosphate-buffered saline served as control.

[4] = test system: peritoneal mast cells; details: Theobald et al. 1987; cited from earlier work

Substance: Phe-Lys-Cys-Arg-Arg-Trp-Gln-Trp-Arg-Met-Lys-Lys-Leu-Gly-Ala-Pro-Ser-Ile-Thr-Cys-Val-Arg-Arg-Ala-Phe (FKCRRWQWRMKKLGAPSITCVRRAF; printed: Phe-Lys-Cys-Arg-Arg-Trp-Gln-Trp-Arg-Met-Lys-Lys-Leu-Gly-Ala-Pro-Ser-Ile-Thr-Cys-Val-Arg-Arg-Ala-Phe) [purified peptide]
- Histamine release (Relative %) ([1]; 1 ppm test substance): 200 ± 60 Relative %
- activity to promote the release of histamine from mast cells induced by α-toxin-producing Staphylococcus aureus cells (in words) ([1]; 1 to 100 ppm): has activity to promote the release of histamine
- Histamine release (Relative %) ([1]; 10 ppm test substance): 250 ± 50 Relative %
- Histamine release (Relative %) ([1]; 100 ppm test substance): 460 ± 240 Relative %
- Leukotriene released (ng) B4 ([2]; 1 ppm test substance): 12 ng
- Leukotriene released (ng) C4 ([2]; 1 ppm test substance): 23 ng
- Leukotriene released (ng) 20-COOH ([2]; 1 ppm test substance): 51 ng
- Leukotriene released (ng) 20-OH ([2]; 1 ppm test substance): 70 ng
- Leukotriene released (ng) (Total B4) ([2]; 1 ppm test substance): 133 ng
- activity to promote the release of leukotriene B4 from polymorphonuclear neutrophils (in words) ([2]; 1 to 100 ppm): promotes the release of leukotriene B4
- Leukotriene released (ng) B4 ([2]; 10 ppm test substance): 14 ng
- Leukotriene released (ng) C4 ([2]; 10 ppm test substance): 17 ng
- Leukotriene released (ng) 20-COOH ([2]; 10 ppm test substance): 61 ng
- Leukotriene released (ng) 20-OH ([2]; 10 ppm test substance): 116 ng
- Leukotriene released (ng) (Total B4) ([2]; 10 ppm test substance): 191 ng
- Leukotriene released (ng) B4 ([2]; 100 ppm test substance): 18 ng
- Leukotriene released (ng) C4 ([2]; 100 ppm test substance): 23 ng
- Leukotriene released (ng) 20-COOH ([2]; 100 ppm test substance): 104 ng
- Leukotriene released (ng) 20-OH ([2]; 100 ppm test substance): 162 ng
- Leukotriene released (ng) (Total B4) ([2]; 100 ppm test substance): 284 ng
- Histamine release (Relative %) ([3]; 1 ppm test substance): 135 ± 10 Relative %
- activity to promote the release of histamine from mast cells induced by A23187 (in words) ([3]; 1 to 100 ppm): has activity to promote the release of histamine
- Histamine release (Relative %) ([3]; 10 ppm test substance): 145 ± 15 Relative %
- Histamine release (Relative %) ([3]; 100 ppm test substance): 175 ± 20 Relative %

Substance: lactoferrin
- effect on calcium ionophore-induced release of histamine from peritoneal mast cells (in words) [4]: has activity to inhibit calcium ionophore-induced release of histamine
